Source: USRE48461E1, “Modulation of androgen receptor expression” (Ionis Pharmaceuticals, Inc., priority 2012, dated 2021)
Oligonucleotides are written 5' to 3', each unit as a sugar letter and its base; * is a phosphorothioate linkage, no mark a phosphodiester; rarer units and linkages stand in square brackets, end groups in braces. Plain capitals give the bases only. e = 2'-O-(2-methoxyethyl) (MOE); k = constrained ethyl (cEt); [5mC] = 5-methylcytosine; d = 2'-deoxy (DNA)

How the values were obtained:
AR mRNA [1] = assay: Antisense inhibition of human AR in HuVEC cells, single concentration (electroporation, qRT-PCR RTS3559); type: cell-based; settings: ~24 h
Summary of the method: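 HuVEC cells electroporated with antisense oligonucleotides at a single concentration. AR mRNA quantified by qRT-PCR using human primer-probe set RTS3559 and normalised to total RNA content by RIBOGREEN.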

AR mRNA [2] = assay: Dose-dependent antisense inhibition of human AR in HuVEC cells (electroporation, qRT-PCR RTS3559, IC50); type: cell-based; settings: for inhibition of AR mRNA at 46.9 nM: 46.9 nM ASO; for inhibition of AR mRNA at 187.5 nM: 187.5 nM ASO; for inhibition of AR mRNA at 750.0 nM: 750.0 nM ASO; for inhibition of AR mRNA at 3000.0 nM: 3000.0 nM ASO
Summary of the method: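 HuVEC cells dosed with antisense oligonucleotides by electroporation and treated approximately 16 hours. AR mRNA quantified by real-time qPCR with primer probe set RTS3559 and normalised to total RNA by RIBOGREEN; IC50 from dose-response.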

AR mRNA [3] = assay: AR mRNA in LnCaP cells by free uptake (hAR_LTS00943); type: cell-based, human; settings: 24 hrs
Protocol: Cells were plated at a concentration of 4,000 cells/well in 96-well plates. ISIS oligonucleotides, specified in Table 68, were added individually at 0.02 μM, 0.10 μM, 0.50 μM, 2.50 μM, or 10.00 μM. After an incubation period of 24 hrs, mRNA levels were measured using primer probe set hAR_LTS00943.

[4] = 46.9 nM, HuVEC, ~16 h, Table 15
[5] = 187.5 nM, HuVEC, ~16 h, Table 15
[6] = 750.0 nM, HuVEC, ~16 h, Table 15
[7] = 3000.0 nM, HuVEC, ~16 h, Table 15
[8] = 31.25 nM, HuVEC, ~16 h, Table 8
[9] = 125.0 nM, HuVEC, ~16 h, Table 8
[10] = 500.0 nM, HuVEC, ~16 h, Table 8
[11] = 1000.0 nM, HuVEC, ~16 h, Table 8

586124 (kG*kA*kT*dT*dT*dA*dA*dT*dG*dG*dT*dT*dG*k[5mC]*kA*kA; further chemistry not given here) [compound 586124]
% inhibition (AR mRNA [1]; 1,000 nM ASO, Table 13): 82%
percent inhibition of AR (AR mRNA [2]; [4]): 28%
percent inhibition of AR (AR mRNA [2]; [5]): 47%
percent inhibition of AR (AR mRNA [2]; [6]): 84%
percent inhibition of AR (AR mRNA [2]; [7]): 94%
IC50 (AR mRNA [2]; HuVEC cells, electroporation): 130 nM
inhibition of AR mRNA at 46.9 nM (AR mRNA [2]; HuVEC cells, electroporation): 28%
inhibition of AR mRNA at 187.5 nM (AR mRNA [2]; HuVEC cells, electroporation): 47%
inhibition of AR mRNA at 750.0 nM (AR mRNA [2]; HuVEC cells, electroporation): 84%
inhibition of AR mRNA at 3000.0 nM (AR mRNA [2]; HuVEC cells, electroporation): 94%
IC50 (AR mRNA [2]; HuVEC, ~16 h, Table 15): 130 nM
Percent inhibition of AR mRNA (AR mRNA [3]; 0.02 μM): 0%
Percent inhibition of AR mRNA (AR mRNA [3]; 0.1 μM): 0%
Percent inhibition of AR mRNA (AR mRNA [3]; 0.5 μM): 19%
Percent inhibition of AR mRNA (AR mRNA [3]; 10 μM): 82%

569227 (antisense eT*eG*kA*kT*kT*dT*dA*dA*dT*dG*dG*dT*kT*kG*k[5mC]*eA) [compound 569227]
% inhibition (AR mRNA [1]; 1,000 nM ASO, Table 13): 51%
percent inhibition of AR (AR mRNA [2]; 31.25 nM, HuVEC, ~16 h, Table 14): 13%
percent inhibition of AR (AR mRNA [2]; 62.5 nM, HuVEC, ~16 h, Table 10): 8%
percent inhibition of AR (AR mRNA [2]; 62.5 nM, HuVEC, ~16 h, Table 14): 22%
percent inhibition of AR (AR mRNA [2]; 125.0 nM, HuVEC, ~16 h, Table 10): 40%
percent inhibition of AR (AR mRNA [2]; 125.0 nM, HuVEC, ~16 h, Table 14): 45%
percent inhibition of AR (AR mRNA [2]; 500.0 nM, HuVEC, ~16 h, Table 10): 51%
percent inhibition of AR (AR mRNA [2]; 500.0 nM, HuVEC, ~16 h, Table 14): 61%
percent inhibition of AR (AR mRNA [2]; 1000.0 nM, HuVEC, ~16 h, Table 10): 73%
percent inhibition of AR (AR mRNA [2]; 1000.0 nM, HuVEC, ~16 h, Table 14): 74%
IC50 (AR mRNA [2]; HuVEC, ~16 h, Table 10): 388 nM
IC50 (AR mRNA [2]; HuVEC, ~16 h, Table 14): 255 nM
Percent inhibition of AR mRNA (AR mRNA [3]; 0.02 μM): 0%
Percent inhibition of AR mRNA (AR mRNA [3]; 0.1 μM): 0%
Percent inhibition of AR mRNA (AR mRNA [3]; 0.5 μM): 4%
Percent inhibition of AR mRNA (AR mRNA [3]; 10 μM): 55%

569213 (antisense kT*kG*kA*dT*dT*dT*dA*dA*dT*dG*dG*dT*kT*kG*k[5mC]*eA) [compound 569213]
% inhibition (AR mRNA [1]; 250 nM ASO, Table 7): 69%
percent inhibition of AR (AR mRNA [2]; [8]): 35%
percent inhibition of AR (AR mRNA [2]; 62.5 nM, HuVEC, ~16 h, Table 8): 53%
percent inhibition of AR (AR mRNA [2]; [9]): 65%
percent inhibition of AR (AR mRNA [2]; [10]): 94%
percent inhibition of AR (AR mRNA [2]; [11]): 96%
IC50 (AR mRNA [2]; HuVEC, ~16 h, Table 8): 60 nM
Percent inhibition of AR mRNA (AR mRNA [3]; 0.02 μM): 3%
Percent inhibition of AR mRNA (AR mRNA [3]; 0.1 μM): 0%
Percent inhibition of AR mRNA (AR mRNA [3]; 0.5 μM): 31%
Percent inhibition of AR mRNA (AR mRNA [3]; 10 μM): 78%

586227 (kT*kG*kA*kT*kT*dT*dA*dA*dT*dG*dG*dT*dT*kG*k[5mC]*kA; antisense) [compound 586227]
% inhibition (AR mRNA [1]; 1,000 nM ASO, Table 13): 87%
percent inhibition of AR (AR mRNA [2]; [4]): 20%
percent inhibition of AR (AR mRNA [2]; [5]): 60%
percent inhibition of AR (AR mRNA [2]; [6]): 88%
percent inhibition of AR (AR mRNA [2]; [7]): 96%
IC50 (AR mRNA [2]; HuVEC cells, electroporation): 130 nM
inhibition of AR mRNA at 46.9 nM (AR mRNA [2]; HuVEC cells, electroporation): 20%
inhibition of AR mRNA at 187.5 nM (AR mRNA [2]; HuVEC cells, electroporation): 60%
inhibition of AR mRNA at 750.0 nM (AR mRNA [2]; HuVEC cells, electroporation): 88%
inhibition of AR mRNA at 3000.0 nM (AR mRNA [2]; HuVEC cells, electroporation): 96%
IC50 (AR mRNA [2]; HuVEC, ~16 h, Table 15): 130 nM
Percent inhibition of AR mRNA (AR mRNA [3]; 0.02 μM): 0%
Percent inhibition of AR mRNA (AR mRNA [3]; 0.1 μM): 0%
Percent inhibition of AR mRNA (AR mRNA [3]; 0.5 μM): 14%
Percent inhibition of AR mRNA (AR mRNA [3]; 10 μM): 59%

569216 (antisense eT*kG*kA*kT*dT*dT*dA*dA*dT*dG*dG*dT*kT*kG*k[5mC]*eA) [compound 569216]
% inhibition (AR mRNA [1]; 250 nM ASO, Table 7): 68%
percent inhibition of AR (AR mRNA [2]; [8]): 38%
percent inhibition of AR (AR mRNA [2]; 62.5 nM, HuVEC, ~16 h, Table 8): 51%
percent inhibition of AR (AR mRNA [2]; [9]): 68%
percent inhibition of AR (AR mRNA [2]; [10]): 91%
percent inhibition of AR (AR mRNA [2]; [11]): 96%
IC50 (AR mRNA [2]; HuVEC, ~16 h, Table 8): 50 nM
Percent inhibition of AR mRNA (AR mRNA [3]; 0.02 μM): 15%
Percent inhibition of AR mRNA (AR mRNA [3]; 0.1 μM): 17%
Percent inhibition of AR mRNA (AR mRNA [3]; 0.5 μM): 49%
Percent inhibition of AR mRNA (AR mRNA [3]; 10 μM): 82%
